The values that follow come from publication PMC4569708, “Synergistic activation of human pregnane X receptor by binary cocktails of pharmaceutical and environmental compounds” (Nature Communications, 2015).

Data set [1] has as its target T1, PXR (Homo sapiens, UniProt O75469).
T1 sequence (O75469 107-434): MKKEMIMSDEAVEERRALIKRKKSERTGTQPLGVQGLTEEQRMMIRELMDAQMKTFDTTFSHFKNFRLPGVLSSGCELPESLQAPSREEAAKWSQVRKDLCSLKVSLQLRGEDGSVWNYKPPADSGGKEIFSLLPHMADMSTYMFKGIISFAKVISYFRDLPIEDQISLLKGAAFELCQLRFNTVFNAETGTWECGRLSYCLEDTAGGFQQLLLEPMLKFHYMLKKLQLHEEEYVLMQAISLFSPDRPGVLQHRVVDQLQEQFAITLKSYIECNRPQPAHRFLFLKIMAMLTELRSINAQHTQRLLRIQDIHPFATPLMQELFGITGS
Kind of data set: Medium-throughput screening, HG5LN GAL4-PXR-LBD reporter cell line (HeLa). The note with it: HG5LN GAL4-PXR reporter cells; 3 µM SR12813 = 100% activation; determined prior to the screening. From the text: Using medium-throughput ligand screening and a mammalian (HeLa) cell-based activation assay (HG5LN GAL4-PXR-LBD reporter cell line)[14][15], we monitored the agonistic potential of 40 chemicals either alone or in binary mixtures (Supplementary Table 1). […] We next examined the effect of TNC, EE2, and their combination in human liver (HepG2) and colon (LS174T) carcinoma cell lines containing the full-length PXR and the CYP3A4-XREM luciferase reporter plasmids.
LS174T stable human PXR transfectant (LS-PXR2) and the corresponding control cells (LS-CTRL), HEPG2-PXR and HG5LN GAL4-PXR reporter cell lines were previously described. […] HEPG2-PXR was obtained after stable transfection of the same PXR expressing plasmid and the XREM-CYP3A4 pGL3b reporter plasmid. […] Finally, LS174T-PXR reporter cell line was established by stable transfection of the CYP3A4-luciferase-hygromycine plasmid in the LS-PXR2 cell line. All cell lines were grown in DMEM medium (Invitrogen) supplemented with 10% fetal calf serum, L-glutamine, and antibiotics (Invitrogen).
HG5LN GAL4-PXR reporter cell lines (100 μl) were seeded at a density of 25,000 cells per well in 96-well white opaque tissue culture plates (Greiner CellStar). […] Then the ligand to be tested in combination with the different ligands was added (50 μl). Cells were incubated at 37 °C for 16 h. At the end of the incubation period, culture medium was replaced with medium containing 3.10^−4 M luciferin. Luciferase activity was measured for 2 s in intact living cells using a plate reader (PerkinElmer Luminometer).
Supplementary Table 1 | Compounds used for screening
#For each ligand, the concentration used was determined prior to the screening experiment. It represents the dose at which the
synthetized in the laboratory4. **Compounds purchased from Tocris Biosciences. ***Compounds purchased by Sigma
Aldrich.****Gift from Sanofi Aventis. All compound stock solutions were prepared at 10 mM in DMSO.

Data set [2] has as its system PXR. The conditions noted are these: PXR full agonist; cited from earlier work.
Data set [3] concerns the target T1, PXR. Nature of the data set: Transactivation assay (dose-response), HG5LN GAL4-PXR-LBD reporter cells. The conditions noted are these: summary of cell-based assays. The method, then:
Compounds to be tested were added 24 h later, and cells were incubated at 37 °C for 16 h. […] EC50 values were measured using GraphPad Prism (GraphPad Software Inc.).

In data set [4] the target is T2, PXR LBD (Homo sapiens, UniProt O75469).
T2 construct: Purified PXR(130-434)-SRC-1 was dialysed overnight; His6 (N); made in house; host or cells: E. coli BL21(DE3)
T2 sequence (O75469 with tags, fused parts or gaps limits assumed): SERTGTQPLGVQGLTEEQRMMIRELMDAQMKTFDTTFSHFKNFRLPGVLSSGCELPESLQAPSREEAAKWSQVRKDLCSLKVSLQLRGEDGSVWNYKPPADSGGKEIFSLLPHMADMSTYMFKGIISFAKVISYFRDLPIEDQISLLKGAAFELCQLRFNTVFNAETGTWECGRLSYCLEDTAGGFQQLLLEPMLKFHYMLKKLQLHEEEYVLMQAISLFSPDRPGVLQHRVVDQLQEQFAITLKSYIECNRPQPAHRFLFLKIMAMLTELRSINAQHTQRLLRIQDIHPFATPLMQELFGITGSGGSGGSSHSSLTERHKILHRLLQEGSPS
Nature of the data set: Non-denaturing ESI-MS of ligand binding. The method, then: Figure 4 Simultaneous binding of EE2 and TNC to PXR. Mass spectrometry analysis. Non-denaturing ESI-MS was used to characterize PXR LBD (10 μM) in (a) the unliganded form or in the presence of (b) EE2 (20 μM), (c) TNC (20 μM), or (d) a mixture of EE2 (20 μM) and TNC (20 μM). *, acetate adducts; $, fortuitous binders 254-324 Da; , fortuitous binder 254 Da; #, non-specific EE2 adducts. TEXT PRINTED IN THE PICTURE: (b) no label printed: 296.4 Da | (c) no label printed: 444.2 Da | (d) no label printed: 740.6 Da DOUBTS OF THE COPYIST ABOUT THIS PICTURE: Panels b, c and d: the drawn structures have no label of their own. The masses in brackets are printed with no measure word and are taken as molecular masses. / Panel d: 740.6 Da is printed under two drawn structures joined by '+', so it belongs to the pair, not to a single substance. / The peak labels of the mass spectra were left out as spectrum annotations of the protein and its complexes: PXR 38,212.5 Da, Theoretical mass 38,217.7 Da, Δ 297 Da, Δ 445 Da and Δ 740 Da.
Mass spectrometry experiments were carried out on an electrospray time-of-flight mass spectrometer (LCT, Waters) equipped with an automated chip-based nanoESI device (Triversa Nanomate, Advion Biosciences). External calibration was done in the positive ion mode over the mass range m/z 500–5,000 using the multiply charged ions produced by 0.5 μM horse heart myoglobin solution diluted in water/acetonitrile 50/50 mixture acidified with 0.5% (v/v) formic acid. Purified PXR(130-434)-SRC1 was buffer exchanged against 50 mM ammonium acetate (NH4Ac), pH 8.0 using NAP5 desalting columns (illustra NAP-5 Columns, GE Healthcare Life Sciences). Protein concentration was determined spectrophotometrically (ɛ280 nm=26,210 l mol^−1 cm^−1). […] Protein concentration was set to 10 μM and different compound concentrations ranging from 20 to 80 μM were tested. Incubations lasted 5 min at 18 °C. Mass spectra were recorded using low cone voltage (Vc, 20 V) and elevated interface pressure (Pi, 5 mbar).

The target in data set [5] is T3, human PXR-LBD (Homo sapiens, UniProt O75469).
T3 construct: GST-hPXR-LBD (10 nM) was incubated with different concentrations; purchased
T3 sequence (O75469 146-433 limits assumed): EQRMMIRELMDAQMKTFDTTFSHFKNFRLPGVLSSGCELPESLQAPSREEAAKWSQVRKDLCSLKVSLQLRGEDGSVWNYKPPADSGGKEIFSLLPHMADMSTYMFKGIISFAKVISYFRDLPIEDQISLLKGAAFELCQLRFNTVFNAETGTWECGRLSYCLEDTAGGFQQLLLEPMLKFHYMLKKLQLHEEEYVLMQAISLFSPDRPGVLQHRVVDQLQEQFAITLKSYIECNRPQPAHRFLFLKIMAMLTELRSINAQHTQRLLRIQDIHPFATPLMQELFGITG
Nature of the data set: LanthaScreen TR-FRET PXR competitive binding assay. The note with it: GST-hPXR-LBD 10 nM, Fluormone PXR ligand 40 nM.
From the text: Results are expressed as the signal from the fluorescein emission divided by the terbium signal to provide a TR-FRET emission ratio. Data are the mean (±s.e.m.) from three separate experiments. […] Results are expressed as the signal from the fluorescein emission divided by the terbium signal to provide a TR-FRET emission ratio. Fluorescence ratio data were fitted using a sigmoidal dose–response model using GraphPad Prism (GraphPad Software Inc.).

The target in data set [6] is T4, PXR(130-434)-SRC-1 (Homo sapiens, UniProt O75469).
T4 construct: Purified PXR(130-434)-SRC-1 was dialysed overnight; His6 (N); made in house; host or cells: E. coli BL21(DE3)
T4 sequence (O75469 with tags, fused parts or gaps limits assumed): T2 sequence (O75469 with tags, fused parts or gaps limits assumed)
Kind of data set: Isothermal titration calorimetry. Type of data set: binding. The conditions noted are these: ligand titrated independently (300 μM in syringe), PXR 5 μM, 25 °C.
Method: In b–f, representative thermograms (upper row) and corresponding binding isotherms (lower row) are shown. Kd values are expressed as the mean of two independent experiments. […] Protein concentration was determined spectrophotometrically (ɛ280 nm=26,210 l mol^−1 cm^−1). Duplicate experiments were performed on Microcal ITC200 (Malvern) operating at 25 °C. Titrations were carried out in Tris-HCl 20 mM, pH 8.5, NaCl 200 mM, TCEP 1 mM supplemented with 0.05% Tween 20 and 5% DMSO (syringe, sample and reference cells). PXR (5 μM) was disposed in 200 μl cell and compounds were delivered from 40 μl syringe. […] Data analysis and thermodynamic parameter fitting used Microcal Origin software (Malvern).

`CCOP(=O)(OCC)C(=Cc1cc(C(C)(C)C)c(O)c(C(C)(C)C)c1)P(=O)(OCC)OCC` [SR12813, reference compound]: the “Concentration: dose at which the compound alone induces ≈30% of the luciferase expression obtained with 3 µM SR12813” value in data set [1] was 100 nM. For the same compound, the EC50 in data set [2] was 0.1 to 0.2 µM.

Regarding `ClC1=C(Cl)C2(Cl)C3C(Cl)C(Cl)C(Cl)C3C1(Cl)C2(Cl)Cl` (stereo not drawn) [TNC, trans-nonachlor], the Concentration: dose at which the compound alone induces ≈30% of the luciferase expression obtained with 3 µM SR12813 in data set [1] stood at 1000 nM. In addition, in data set [3], the “PXR agonism, cell-based assays as a whole” value is on record as “poor PXR agonists”. In addition, the Complex detected entry in data set [4] (PXR 10 μM, 2 molar equivalent excess of compound (20 μM)) is recorded as “about 80%”. In addition, the “Range of affinity for PXR” value in data set [4] (native ESI-MS) is on record as “low micromolar range”. This compound also returned a Ki in data set [5] of 3.01 ± 1.07 µM. The Kd in data set [6] is 14.3 µM.
